Assay results reported in patent publication US20230407243A1, “GENETIC PLATFORM TO INVESTIGATE THE FUNCTIONS OF BACTERIAL DRUG EFFLUX PUMPS” (priority 2022, published 2023).

Key:
Test in all cases: MIC susceptibility profiling, efflux platform
Type in all cases: cell-based, Escherichia coli
EKO-35 araC::mdtEF = details: for Fold change of MICs: EKO-35 araC::mdtEF compared to EKO-35; for Minimum Inhibitory Concentration, EKO-35 araC::mdtEF / MIC: Table 13A, non-porinated, technical duplicate; for MIC: Escherichia coli, read-out: Minimum Inhibitory Concentration, EKO-35 araC::mdtEF
Method in brief: (§1)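 Growth inhibition was scored by OD600, with readings taken before incubation subtracted from those after. Cells were grown in MHB II at 37 °C for 18 h with aeration, against duplicate 2-fold compound series and DMSO-only wells. Inoculum: PBS suspension at OD600 ~1.0 diluted 1/2000.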

[1] = tested on: EKO-35 araC::mexCD (MexCD from P. aeruginosa); details: for Fold change of MICs: EKO-35 araC::mexCD compared to EKO-35; for Minimum Inhibitory Concentration, EKO-35 araC::mexCD / MIC: Table 13B, non-porinated, technical duplicate; for MIC: read-out: Minimum Inhibitory Concentration, EKO-35 araC::mexCD
Method in brief: as §1

EKO-35 araC::acrBD408A = details: for Fold change of MICs: EKO-35 araC::acrBD408A compared to EKO-35; for Minimum Inhibitory Concentration, EKO-35 araC::acrBD408A / MIC: Table 13B, non-porinated, technical duplicate; for MIC: Escherichia coli, read-out: Minimum Inhibitory Concentration, EKO-35 araC::acrBD408A
Method in brief: as §1

EKO-35 araC::mdtBC = details: for Fold change of MICs: EKO-35 araC::mdtBC compared to EKO-35; for Minimum Inhibitory Concentration, EKO-35 araC::mdtBC / MIC: Table 13B, non-porinated, technical duplicate; for MIC: Escherichia coli, read-out: Minimum Inhibitory Concentration, EKO-35 araC::mdtBC
Method in brief: as §1

EKO-35 araC::emrKY = details: for Fold change of MICs: EKO-35 araC::emrKY compared to EKO-35; for Minimum Inhibitory Concentration, EKO-35 araC::emrKY / MIC: Table 13B, non-porinated, technical duplicate; for MIC: Escherichia coli, read-out: Minimum Inhibitory Concentration, EKO-35 araC::emrKY
Method in brief: as §1

EKO-35 araC::acrB = details: for Fold change of MICs: EKO-35 araC::acrB compared to EKO-35; for Minimum Inhibitory Concentration, EKO-35 araC::acrB / MIC: Table 13A, non-porinated, technical duplicate; for MIC: Escherichia coli, read-out: Minimum Inhibitory Concentration, EKO-35 araC::acrB
Method in brief: as §1

EKO-35 araC::acrD = details: for Fold change of MICs: EKO-35 araC::acrD compared to EKO-35; for Minimum Inhibitory Concentration, EKO-35 araC::acrD / MIC: Table 13A, non-porinated, technical duplicate; for MIC: Escherichia coli, read-out: Minimum Inhibitory Concentration, EKO-35 araC::acrD
Method in brief: as §1

SMILES	Fold change of MICs (EKO-35 araC::mdtEF)	Minimum Inhibitory Concentration, EKO-35 araC::mdtEF (EKO-35 araC::mdtEF)	Fold change of MICs [1]	Minimum Inhibitory Concentration, EKO-35 araC::mexCD [1]	Fold change of MICs (EKO-35 araC::acrBD408A)	Minimum Inhibitory Concentration, EKO-35 araC::acrBD408A (EKO-35 araC::acrBD408A)	Fold change of MICs (EKO-35 araC::mdtBC)	Minimum Inhibitory Concentration, EKO-35 araC::mdtBC (EKO-35 araC::mdtBC)	Fold change of MICs (EKO-35 araC::emrKY)	Minimum Inhibitory Concentration, EKO-35 araC::emrKY (EKO-35 araC::emrKY)	Fold change of MICs (EKO-35 araC::acrB)	Minimum Inhibitory Concentration, EKO-35 araC::acrB (EKO-35 araC::acrB)	Fold change of MICs (EKO-35 araC::acrD)	MIC (EKO-35 araC::mdtEF)	MIC [1]	MIC (EKO-35 araC::acrBD408A)	MIC (EKO-35 araC::mdtBC)	MIC (EKO-35 araC::emrKY)	MIC (EKO-35 araC::acrB)	MIC (EKO-35 araC::acrD)	other results
C=C1CCO[C@]2([C@@H](O)[C@@](C)(O)CO)NC(=O)[C@@]1(O)NC2=O [Bicyclomycin]	1 fold	200 µg/mL	1 fold	200 µg/mL	1 fold	200 µg/mL	1 fold	200 µg/mL	1 fold	200 µg/mL	1 fold	200 µg/mL	1 fold	–	–	–	–	–	–	–	Minimum Inhibitory Concentration, EKO-35 araC::acrD (EKO-35 araC::acrD): 200 µg/mL
N#CC(C#N)=NNc1cccc(Cl)c1 [CCCP]	1 fold	12.5 µg/mL	1 fold	12.5 µg/mL	1 fold	12.5 µg/mL	1 fold	12.5 µg/mL	1 fold	12.5 µg/mL	1 fold	12.5 µg/mL	1 fold	–	–	–	–	–	–	–	Minimum Inhibitory Concentration, EKO-35 araC::acrD (EKO-35 araC::acrD): 6.25 µg/mL
[H]/N=C(\N/C(=N/[H])NCCCCCCNC(=N)NC(=N)Nc1ccc(Cl)cc1)Nc1ccc(Cl)cc1 [Chlorhexidine]	1 fold	–	1 fold	–	1 fold	–	1 fold	–	1 fold	–	1 fold	–	1 fold	0.391 µg/mL	0.391 µg/mL	0.391 µg/mL	0.391 µg/mL	0.391 µg/mL	0.391 µg/mL	0.391 µg/mL	–
CCCCCCCCCCCCOS(=O)(=O)[O-].[Na+] [SDS, sodium dodecyl sulphate]	32 fold	–	32 fold	–	2 fold	–	2 fold	–	2 fold	–	32 fold	–	32 fold	–	1000 µg/mL	62.5 µg/mL	62.5 µg/mL	62.5 µg/mL	–	–	efflux pump-mediated resistance vs EKO-35 (EKO-35 araC::acrD; AcrD): confirmed
CN[C@@H]1[C@H](O)[C@H](NC)[C@H]2O[C@@]3(O)C(=O)C[C@@H](C)O[C@H]3O[C@@H]2[C@H]1O [Spectinomycin]	1 fold	–	1 fold	–	1 fold	–	1 fold	–	1 fold	–	1 fold	–	1 fold	25 µg/mL	25 µg/mL	25 µg/mL	25 µg/mL	25 µg/mL	25 µg/mL	25 µg/mL	–
NCCCNCCCCNCCCN [Spermine]	1 fold	–	1 fold	–	1 fold	–	1 fold	–	1 fold	–	1 fold	–	1 fold	–	2000 µg/mL	–	–	–	–	–	–
[H]/N=C(/N)N[C@H]1[C@H](O)[C@@H](O)[C@H](O[C@@H]2O[C@@H](C)[C@](O)(C=O)[C@H]2O[C@@H]2O[C@@H](CO)[C@H](O)[C@@H](O)[C@@H]2NC)[C@@H](N/C(N)=N\[H])[C@@H]1O [Streptomycin]	2 fold	–	1 fold	–	1 fold	–	2 fold	–	1 fold	–	2 fold	–	2 fold	6.25 µg/mL	3.12 µg/mL	3.12 µg/mL	6.25 µg/mL	3.12 µg/mL	6.25 µg/mL	6.25 µg/mL	–
Nc1ccc(S(=O)(=O)Nc2nccs2)cc1 [Sulfathiazole]	1 fold	–	1 fold	–	1 fold	–	1 fold	–	1 fold	–	1 fold	–	1 fold	10 µg/mL	10 µg/mL	10 µg/mL	10 µg/mL	10 µg/mL	10 µg/mL	10 µg/mL	–
C[n+]1c2cc(N)ccc2cc2ccc(N)cc21.[Cl-] [acriflavine]	2 fold	0.195 µg/mL	8 fold	0.781 µg/mL	1 fold	0.098 µg/mL	1 fold	0.098 µg/mL	1 fold	0.098 µg/mL	32 fold	3.125 µg/mL	2 fold	–	–	–	–	–	–	–	restoration of resistance to wild-type levels by acrB alone (EKO-35 araC::acrB; overexpression of acrB in EKO-35): did not restore resistance to wild-type levels; Minimum Inhibitory Concentration, EKO-35 araC::acrD (EKO-35 araC::acrD): 0.195 µg/mL
CC1(C)S[C@@H]2[C@H](NC(=O)[C@H](N)c3ccccc3)C(=O)N2[C@H]1C(=O)O [ampicillin]	1 fold	–	1 fold	–	1 fold	–	1 fold	–	1 fold	–	4 fold	–	4 fold	25 µg/mL	25 µg/mL	25 µg/mL	25 µg/mL	25 µg/mL	100 µg/mL	100 µg/mL	–
CC[C@H]1OC(=O)[C@H](C)[C@@H](O[C@H]2C[C@@](C)(OC)[C@@H](O)[C@H](C)O2)[C@H](C)[C@@H](O[C@@H]2O[C@H](C)C[C@H](N(C)C)[C@H]2O)[C@](C)(O)C[C@@H](C)CN(C)[C@H](C)[C@@H](O)[C@]1(C)O [azithromycin]	8 fold	–	4 fold	–	1 fold	–	1 fold	–	1 fold	–	16 fold	–	1 fold	6.25 µg/mL	3.12 µg/mL	0.781 µg/mL	0.781 µg/mL	–	12.5 µg/mL	0.781 µg/mL	–
O=C(N[C@H](CO)[C@H](O)c1ccc([N+](=O)[O-])cc1)C(Cl)Cl [chloramphenicol]	1 fold	–	1 fold	–	1 fold	–	1 fold	–	1 fold	–	8 fold	–	2 fold	0.781 µg/mL	0.781 µg/mL	0.781 µg/mL	0.781 µg/mL	0.391 µg/mL	6.25 µg/mL	1.56 µg/mL	–
O=C(Nc1cccc(Oc2c(F)c(F)c(F)c(F)c2F)c1)c1ccccc1 [compound 1]	1 fold	320 µg/mL	1 fold	320 µg/mL	1 fold	320 µg/mL	1 fold	320 µg/mL	1 fold	320 µg/mL	1 fold	320 µg/mL	1 fold	–	–	–	–	–	–	–	Minimum Inhibitory Concentration, EKO-35 araC::acrD (EKO-35 araC::acrD): 320 µg/mL
N#CC(=NNc1cccc(C(F)(F)F)c1)C(=O)c1ccsc1 [compound 3]	1 fold	320 µg/mL	1 fold	320 µg/mL	1 fold	320 µg/mL	1 fold	320 µg/mL	1 fold	320 µg/mL	1 fold	320 µg/mL	1 fold	–	–	–	–	–	–	–	Minimum Inhibitory Concentration, EKO-35 araC::acrD (EKO-35 araC::acrD): 320 µg/mL
